From patent US4594190A, “Quaternary salts of dibenzo[1,4]diazepinones, pyrido-[1,4]benzodiazepinones, pyrido[1,5]benzodiazepinones with antiulcer, antisecretory, spasmolytic and antimusarinic activities” (priority 1983, dated 1986)

Experiments:
gastric acid secretion = assay: Gastric acid secretion in the pylorus ligated rat (antisecretory activity); format: in vivo, rat (male Sprague-Dawley); details: 4 hours
Experimental: GASTRIC ACID SECRETION IN THE PYLORUS LIGATED RAT
Male Sprague-Dawley rats weighing 150±5 g fasting since 48 hours were used. Pylorus ligation was performed for 4 hours. The products under examination were administered by the oral route immediately after the ligation.

[1] = tested on: carbachole-induced salivation; assay: Carbachole salivation in the rat; format: in vivo, rat (male Sprague-Dawley); details: 62.5 mg/kg p.o., one hour before carbachole 1 mg/kg i.p.
Experimental: CARBACHOLE SALIVATION IN THE RAT
The method cited by R. Turner: "Parasympatholytic Agents" in R. Turner "Screening Methods in Pharmacology" pag. […] Academic Press. […] Male Sprague-Dawley rats, mean weight 150±5 g, fasting since 24 hours, were used.
The salivation was induced by the intraperitoneal administration of 1 mg/kg of carbachole. The products under exam were administered orally one hour before the cholinergic stimulus.

in vivo = details: mouse, oral, Swiss mice, 14 days observation
Experimental: The acute toxicity was determined by administering by oral route the substances under exam to Swiss mice, average weight 20±2 g. The observation period was 14 days. 10 Animals were used for each assayed dose.

| Compound | % Antisecretory activity (gastric acid secretion; 6.25 mg/kg p.o.) [%] | % Antisecretory activity (gastric acid secretion; 12.5 mg/kg p.o.) [%] | % Antisecretory activity (gastric acid secretion; 25 mg/kg p.o.) [%] | Salivation by carbachol- protection % [1] [%] | LD50 at 336 h (in vivo) [mg/kg] |
| --- | --- | --- | --- | --- | --- |
| C[N+]1(C)CC[N+](C)(CC(=O)N2c3ccccc3C(=O)Nc3cccnc32)CC1 [Compound 2, 11-[2-(4-Methylpiperazin-1-yl)acetyl]-5,11-dihydro-6H-pyrido[2,3-b][1,4]benzodiazepin-6-one N^1,4 bisiodomethylate] | 10.3 | 15.1 | 20.4 | 30 | > 500 |
| C[N+](C)(C)CC(=O)N1c2ccccc2C(=O)Nc2cccnc21 [Compound 3, 11-(2-Dimethylaminoacetyl)-5,11-dihydro-6H-pyrido-[2,3-b][1,4]-benzodiazepin-6-one iodomethylate] | 6.0 | 14.3 | 35.9 | 0 | < 500 |
| C[N+]1(CC(=O)N2c3ccccc3C(=O)Nc3cccnc32)CCCCC1 [Compound 4, 11-[2-(Piperidin-1-yl)acetyl]-5,11-dihydro-6H-pyrido[2,3-b][1,4]benzodiazepin-6-one iodomethylate] | 22.7 | 48.1 | 70.3 | 70 | > 500 |
| C[N+]1(CCC(=O)N2c3ccccc3C(=O)Nc3cccnc32)CCCCCC1 [Compound 13] | 19.2 | 47.5 | 69.6 | 30 | > 500 |
| CC(C)(C)C(=O)OC[N+]1(C)CCC(C(=O)N2c3ccccc3C(=O)Nc3cccnc32)CC1 (stereo not shown) [Compound 15] | 9.6 | 27.7 | 41.8 | 10 | > 500 |
